According to patent US11534423B2, “Methods and compositions for improving exercise endurance, performance, or tolerance” (Washington University, priority 2019, dated 2022):

Experiments:
S1P = biological target: T1, S1P (Mus musculus, UniProt Q9WTZ2); details: 30 mg/kg i.p. injection every 6 hrs for 24 hr; cited from earlier work
T1 construct: from tissue; host or cells: mouse liver (in vivo, i.p. dosing; earlier mouse studies reported elsewhere)
T1 sequence (Q9WTZ2 187-1052): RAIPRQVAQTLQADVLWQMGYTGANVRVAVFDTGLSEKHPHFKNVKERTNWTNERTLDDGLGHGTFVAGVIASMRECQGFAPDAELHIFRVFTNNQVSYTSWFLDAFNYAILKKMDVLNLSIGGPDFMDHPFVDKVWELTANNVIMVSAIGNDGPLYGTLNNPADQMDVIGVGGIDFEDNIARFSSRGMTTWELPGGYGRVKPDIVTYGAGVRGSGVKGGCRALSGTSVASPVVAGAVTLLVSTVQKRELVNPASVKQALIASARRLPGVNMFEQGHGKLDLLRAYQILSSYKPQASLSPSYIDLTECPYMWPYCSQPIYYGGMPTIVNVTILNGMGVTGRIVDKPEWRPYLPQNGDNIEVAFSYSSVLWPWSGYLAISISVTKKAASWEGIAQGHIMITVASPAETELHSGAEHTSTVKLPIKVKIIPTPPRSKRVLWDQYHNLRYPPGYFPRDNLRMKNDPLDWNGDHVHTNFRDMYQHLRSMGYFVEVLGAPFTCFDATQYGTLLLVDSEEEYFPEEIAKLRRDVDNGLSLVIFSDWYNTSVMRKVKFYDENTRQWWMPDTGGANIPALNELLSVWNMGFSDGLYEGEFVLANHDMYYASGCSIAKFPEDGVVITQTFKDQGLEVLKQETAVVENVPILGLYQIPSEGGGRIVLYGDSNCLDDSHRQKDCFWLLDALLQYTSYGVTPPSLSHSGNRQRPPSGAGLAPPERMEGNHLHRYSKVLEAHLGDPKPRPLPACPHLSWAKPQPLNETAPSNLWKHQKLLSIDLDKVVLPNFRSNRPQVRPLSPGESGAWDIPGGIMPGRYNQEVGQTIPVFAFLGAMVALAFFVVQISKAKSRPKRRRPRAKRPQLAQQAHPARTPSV

Wild-type mice = assay: acute exercise test to exhaustion after intraperitoneal injection; type: in vivo; details: PF-429242 or vehicle, N=3, FIG. 14
Method: Exercise endurance: Mice will undergo a single bout of a graded exercise test to exhaustion using a 4-lane treadmill on a 0% incline, with an electric grid at the back of each treadmill. Three days before the endurance test, mice will have 3 days of acclimation at 10 m/min at 0% incline for 5 min. The test will involve a 5 min acclimation period on the treadmill (turned off), followed by: 5 m/min for 5 min; 10 m/min for 5 min; 15 m/min for 10 min; 25 m/min for 10 min; and finally, 30 m/min until exhaustion is reached. Exhaustion is defined as the inability of the mouse to resume running within 10 s after direct contact on the electric grid and inability to right itself when placed on its back.
Wild-type mice were treated with PF-429242 or vehicle via intraperitoneal injection, and subjected to an acute exercise test to exhaustion (N=3).

CCN(CC)Cc1ccc(C(=O)N(CCc2ccccc2OC)[C@@H]2CCNC2)cc1 [PF-429242]
S1P inhibition in mouse liver (S1P): effectively inhibits S1P
exercise tolerance (Wild-type mice): enhanced exercise tolerance
